# Source: PMC3574217 (Journal of medicinal chemistry, 2013)
# Assays:
# [1] = system: adult WT murine cardiac ventricular myocytes; test: Contractile response; assay type: cell-based, mouse; details: vs control basal condition, P<0.05
# [2] = 24 h
# [3] = system: CSQ-overexpressing mice with heart failure; details: chronic administration; cited from earlier work
# cardiac P2X4R = details: cardiomyocytes obtained from the CSQ mouse; cited from earlier work
# aorta ring preparations = details: cited from earlier work
# [4] = system: LAD ligation model of ischemic heart failure in mice; test: LAD ligation ischemic heart failure model, echocardiography-derived FS; assay type: in vivo, mouse; details: infusion 28 days
# [5] = system: LAD ligation model of ischemic heart failure in mice; test: Ex vivo isolated working heart preparation; assay type: in vivo, mouse; details: infusion 28 days
# [6] = system: CSQ-overexpressing mice with heart failure; test: CSQ-overexpressing mouse model of heart failure; assay type: in vivo
# Stability in rat plasma = details: 24 h, 37°C
# [7] = Stability in rat liver microsomes; details: 24 h, 37°C
compound,measurement,setting,value
"Nc1nc(Cl)nc2c1ncn2[C@H]1[C@H](O)[C@H](O)[C@@]2(COP(=O)(O)O)C[C@@H]12 [Compound 1, (1’S,2’R,3’S,4’R,5’S)-4-(6-amino-2-chloro-9H-purin-9-yl)-1-[phosphoryloxy-methyl]bicyclo[3.1.0]hexane-2,3-diol]",contraction shortening (CS),[1],modest increase in contraction shortening
same,stability to acidic conditions,"[2]; pH 1.5, 37°C, data not shown",stable
same,cardioprotection in CSQ mouse model,[3],rescued the hypertrophic and heart failure phenotype
same,P2X-like current in cardiomyocytes,cardiac P2X4R,induced a current that is characteristic of the action of the cardiac P2X4R
same,vasodilator action,aorta ring preparations,devoid of any vasodilator action
"Nc1nc(Cl)nc2c1ncn2[C@H]1[C@H](O)[C@H](O)[C@]2(CCP(=O)(O)O)C[C@H]12 [Compound 3, (1’S,2’R,3’S,4’R,5’S)-4’-(6-amino-2-chloropurin-9-yl)-2’,3’-(dihydroxy)-1’-(phosphonoethylene)-bicyclo[3.1.0]hexane]",contraction shortening (CS),[1],modest increase in contraction shortening
same,cardioprotection in CSQ mouse model,[3],protective
"[2H]C([2H])(OP(=O)(O)O)[C@@]12C[C@@H]1[C@@H](n1cnc3c(N)nc(Cl)nc31)[C@H](O)[C@@H]2O [Compound 4, (1’S,2’R,3’S,4’R,5’S)-4-(6-Amino-2-chloro-9H-purin-9-yl)-1-[phosphoryloxydideuteromethyl]-2,3-diol-bicyclo[3.1.0]hexane]","protection in the LAD model (increase in FS), in words",[4],significantly protective
"Nc1nc(Cl)nc2c1ncn2[C@H]1[C@H](O)[C@H](O)[C@]2(CSP(=O)(O)O)C[C@H]12 [Compound 5, (1’S,2’R,3’S,4’R,5’S)-4-(6-Amino-2-chloro-purin-9-yl)-2,3-(dihydroxy)-1-[monophosporothioate]-bicyclo-[3.1.0]hexane]","protection in ex vivo working heart (+dP/dt), in words",[5],able to improve function
same,"cardioprotection in CSQ model, in words",[6]; infusion,could protect
"Nc1nc(I)nc2c1ncn2[C@H]1[C@H](O)[C@H](O)[C@]2(CP(=O)(O)O)C[C@H]12 [Compound 6, (1’S,2’R,3’S,4’R,5’S)-4’-(6-Amino-2-iodoropurin-9-yl)-2’,3’-(dihydroxy)-1’-(phosphonomethylene)-bicyclo[3.1.0]hexane]","protection in ex vivo working heart (+dP/dt), in words",[5],able to improve function
same,"cardioprotection in CSQ model, in words",[6]; infusion,abolished protection
same,effect on FS in CSQ mice,"[6]; infusion, compared to vehicle",did not improve FS
same,"LV wall thickness in CSQ mice, in words",[6]; vs NS-infused CSQ mice,did not improve FS (Table S2) or prevent LV wall thinning
"CCOP(=O)(OCC)OC[C@@]12C[C@@H]1[C@@H](n1cnc3c(N)nc(Cl)nc31)[C@H](O)[C@@H]2O [Compound 7, (1’S,2’R,3’S,4’R,5’S)-4-(6-Amino-2-chloro-9H-purin-9-yl)-1-[(diethylphosphate)methyl]-2,3-(dihydroxy)-bicyclo[3.1.0]hexane]","protection in the LAD model (increase in FS), in words",[4],highly protective
same,"protection in ex vivo working heart (+dP/dt), in words",[5],able to improve function
same,"cardioprotection in CSQ model, in words",[6]; infusion,cardioprotective activity was seen
"CC(C)OP(=O)(OC[C@@]12C[C@@H]1[C@@H](n1cnc3c(N)nc(Cl)nc31)[C@H](O)[C@@H]2O)OC(C)C [Compound 8, (1’S,2’R,3’S,4’R,5’S)-4-(6-Amino-2-chloro-9H-purin-9-yl)-1-[(diisopropylphosphate)methyl]-2,3-(dihydroxy)-bicyclo[3.1.0]hexane]","protection in the LAD model (increase in FS), in words",[4],highly protective
"CC(C)(C)OP(=O)(OC[C@@]12C[C@@H]1[C@@H](n1cnc3c(N)nc(Cl)nc31)[C@H](O)[C@@H]2O)OC(C)(C)C [Compound 9, (1’S,2’R,3’S,4’R,5’S)-4-(6-Amino-2-chloro-9H-purin-9-yl)-2,3-(dihydroxy)-1-[(t-butylphosphate)methyl]-bicyclo[3.1.0]hexane]","protection in ex vivo working heart (+dP/dt), in words",[5],able to improve function
"[2H]C([2H])(OP(=O)(OCC)OCC)[C@@]12C[C@@H]1[C@@H](n1cnc3c(N)nc(Cl)nc31)[C@H](O)[C@@H]2O [Compound 10, (1’S,2’R,3’S,4’R,5’S)-4-(6-Amino-2-chloro-9H-purin-9-yl)-2,3-(dihydroxyl)-1-[(di-ethylphosphate)dideuteromethyl]bicyclo[3.1.0]hexane]","protection in the LAD model (increase in FS), in words",[4],did not fully protect
"CCOP(=O)(OCC)SC[C@@]12C[C@@H]1[C@@H](n1cnc3c(N)nc(Cl)nc31)[C@H](O)[C@@H]2O [Compound 11, (1’S,2’R,3’S,4’R,5’S)-4-(6-Amino-2-chloro-purin-9-yl)-1-[O,O-diethyl S-methyl phosphorothioate]-2,3-(dihydroxyl)-bicyclo-[3.1.0]hexane]","protection in the LAD model (increase in FS), in words",[4],protective
"CCOP(=S)(OCC)SC[C@@]12C[C@@H]1[C@@H](n1cnc3c(N)nc(Cl)nc31)[C@H](O)[C@@H]2O [Compound 13, (1’S,2’R,3’S,4’R,5’S)-4-(6-Amino-2-chloro-purin-9-yl)-1-[O,O-diethyl S-methyl phosphorodithioate]-2,3-(dihydroxyl)-bicyclo-[3.1.0]hexane]","protection in the LAD model (increase in FS), in words",[4],protective
"CCOP(=O)(C[C@@]12C[C@@H]1[C@@H](n1cnc3c(N)nc(Cl)nc31)[C@H](O)[C@@H]2O)OCC [Compound 14, Diethyl-(1’S,2’R,3’S,4’R,5’S)-4’-(6-amino-2-chloropurin-9-yl)-2’,3’-(hydroxy)-bicyclo[3.1.0]hexane phosphonate]","protection in ex vivo working heart (+dP/dt), in words",[5],did not protect
same,"cardioprotection in CSQ model, in words",[6]; infusion,inactive
same,stability in aqueous medium at pH 1,[2]; 50°C,unable to demonstrate any hydrolysis
same,stability in aqueous medium at pH 11,[2]; 50°C,unable to demonstrate any hydrolysis
same,stability in the presence of rat plasma,Stability in rat plasma,stable
same,stability in the presence of microsomes from rat liver,[7],unable to demonstrate any hydrolysis
